Test results from patent US4617292A, “Pharmaceutical compositions and method for inhibiting histamine release tocopheryl glycoside” (Sunstar Kabushiki Kaisha, priority 1984, dated 1986).
Like-named read-outs stand apart in the source and are kept apart here.

What was measured:
mast cells = test: Inhibition of histamine release from mast cells due to an antigen-antibody reaction (in vitro; ovalbumin-sensitized); format: cell-based, Wister male rats; conditions: Mast cell; rat peritoneal mast cells; antigenic ovalbumin 10^-4 g/ml; 5 min pre-incubation, 10 min incubation at 37° C.; corrected for spontaneous release; read-out: concentration showing 50% inhibition of histamine release
Acute toxicity (LD50) = conditions: in vivo
[1] = ip, read-out: LD50 values (i.p.)
[2] = po, read-out: LD50 values (p.o.)

Cc1c(C)c2c(c(C)c1O[C@@H]1O[C@H](CO)[C@@H](O)[C@H](O)[C@@H]1O)CCC(C)(CCCC(C)CCCC(C)CCCC(C)C)O2 (mixture of isomers) [dl-α-tocopherylmannoside, dl-α-Tocopherylmannoside]
IC50 (mast cells): ~15 µg/mL
LD50 (Acute toxicity (LD50); [1]): > 500 mg/kg
LD50 (Acute toxicity (LD50); [2]): > 5000 mg/kg

Cc1c(C)c2c(c(C)c1OC1O[C@H](CO)[C@@H](O)[C@H](O)[C@H]1O)CCC(C)(CCCC(C)CCCC(C)CCCC(C)C)O2 (mixture of isomers) [dl-α-tocopherylglucoside, dl-α-Tocopherylglucoside]
IC50 (mast cells): ~50 µg/mL
LD50 (Acute toxicity (LD50); [1]): > 500 mg/kg
LD50 (Acute toxicity (LD50); [2]): > 5000 mg/kg
